The subject of the assay is tumor cells that have K-RAS mutations and/or PTEN or mismatch repair gene deficiencies. As to the kind of experiment: Growth inhibition, summary of potency in text. The class given is cell-based, human. The conditions noted are these: among the three compounds tested, tumor cell lines. As for the experimental part:
Three novel non-covalent DNA binding agents of the invention, NSC 718813, NSC 723734 and NSC 726260, are tested in five different EGFR-resistant, K-Ras mutant cancer cell lines. These cell lines represent colorectal (SW480, SW620 and HCT116) and breast cancer (MDA-MB-231 and […]).
The in vitro assays to evaluate the anticancer potential of non-covalent DNA binding agents were measured by using one or more of the assays described below.
Tumor cells are plated in 96 well plates at a density of 8,000 to 10,000 cells per well in 100 uL volume and grown overnight. On the second day, the cells are supplemented with medium containing an appropriate dilution of the compounds to be tested. The cells are treated with the test compounds for two more days and the growth medium was replaced with fresh medium containing 3% Alamar Blue, incubated for 2-3 hours and plates are read in a SpectraMax Gemini XS fluorescence plate reader (Molecular Devices).

One may read the IC50 as the concentration at which inhibition is half-maximal.

In turn, `COc1cc2c(cc1OCCCC(=O)Nc1ccc3ccc4cccc5ccc1c3c45)N=C[C@@H]1CCCN1C2=O` [NSC 726260] returned an IC50 of approximately 1000 nM.

For the origin of these results see patent US9744175B2, “Compositions of combinations of non-covalent DNA binding agents and anti-cancer and/or anti-inflammatory agents and their use in disease treatment” (INDUS PHARMACEUTICALS, INC., priority 2012, dated 2017).
